The subject of the test is MDA-MB-231 complex spheroid viability. The experiment in a line: Anticancer human tumor MDA-MB-231/ATCC cell line growth inhibition.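 On all read-outs here: drug exposure lasted 7 days starting on day 3 of spheroid growth.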 The note with it: for viability, T/C: stronger effect = lower value. Summed up:
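Multicellular complex spheroids of tumor cells with human endothelial cells (HUVEC) and mesenchymal stem cells; the LSD1 inhibitor iadademstat was combined with standard-of-care or investigational agents. Top concentration at or near clinical Cmax, half-log dilutions; final DMSO ≤0.25%.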

Where [1] appears, read: curve of first compound, second compound 0.1 µM.
Setting [2] is: curve of first compound, second compound 0.316 µM.
The mark [3] stands for this setting: curve of first compound, second compound 1 µM.
[4] abbreviates: curve of first compound, second compound 3.16 µM.
Where [5] appears, read: curve of first compound, second compound 10 µM.
Where [6] appears, read: second compound 0.1 µM, first compound 0.00316 µM.
Setting [7] is: second compound 0.1 µM, first compound 0.01 µM.
Setting [8] is: second compound 0.1 µM, first compound 0.0316 µM.
[9] abbreviates: second compound 0.1 µM, first compound 0.1 µM.
Where [10] appears, read: second compound 0.316 µM, first compound 0.00316 µM.
Setting [11] is: second compound 0.316 µM, first compound 0.01 µM.
The mark [12] stands for this setting: second compound 0.316 µM, first compound 0.0316 µM.
Where [13] appears, read: second compound 0.316 µM, first compound 0.1 µM.
Where [14] appears, read: second compound 1 µM, first compound 0.00316 µM.
Where [15] appears, read: second compound 1 µM, first compound 0.01 µM.
[16] abbreviates: second compound 1 µM, first compound 0.0316 µM.
Setting [17] is: second compound 1 µM, first compound 0.1 µM.
Setting [18] is: second compound 3.16 µM, first compound 0.00316 µM.
Setting [19] is: second compound 3.16 µM, first compound 0.01 µM.
Setting [20] is: second compound 3.16 µM, first compound 0.0316 µM.
The mark [21] stands for this setting: second compound 3.16 µM, first compound 0.1 µM.
Setting [22] is: second compound 10 µM, first compound 0.00316 µM.
Where [23] appears, read: second compound 10 µM, first compound 0.01 µM.
The mark [24] stands for this setting: second compound 10 µM, first compound 0.0316 µM.
The mark [25] stands for this setting: second compound 10 µM, first compound 0.1 µM.
Where [26] appears, read: second compound 0.1 µM, first compound 0.316 µM.
[27] abbreviates: second compound 0.1 µM, first compound 1 µM.
Where [28] appears, read: second compound 0.316 µM, first compound 0.316 µM.
Setting [29] is: second compound 0.316 µM, first compound 1 µM.
The mark [30] stands for this setting: second compound 1 µM, first compound 0.316 µM.
[31] abbreviates: second compound 1 µM, first compound 1 µM.
[32] abbreviates: second compound 3.16 µM, first compound 0.316 µM.
The mark [33] stands for this setting: second compound 3.16 µM, first compound 1 µM.
Setting [34] is: second compound 10 µM, first compound 0.316 µM.
The mark [35] stands for this setting: second compound 10 µM, first compound 1 µM.

Several values for one entry are separate records, joined by “and”; a condition that tells them apart may be missing. Identical values can stand only once. A value given as a limit tells only on which side of the number the result lay.

For the compound `CC[C@@]1(O)C(=O)OCc2c1cc1n(c2=O)Cc2cc3c(CN(C)C)c(O)ccc3nc2-1` + NC1CC1c1ccc(-c2cccc(O)c2)cc1, the IC50 under setting [1] stood at 0.00163 µM; the IC50 under setting [2] is 0.000845 µM; the 50% inhibitory concentration (IC50) under setting [3] amounted to 0.000672 µM; the IC50 under setting [4] is 0.00104 µM; the IC50 under setting [5] is below 0.000316 µM. The viability, T/C (second compound 0.1 µM, first compound 0.000316 µM) is 72.6%; the viability, T/C (second compound 0.1 µM, first compound 0.001 µM) is 62.5%; the viability, T/C under setting [6] was 33.1%; the viability, T/C under setting [7] is 23.5%; the viability, T/C under setting [8] was 27.3%; the viability, T/C under setting [9] is 22%. Moreover, the viability, T/C is 61.8% (second compound 0.316 µM, first compound 0.000316 µM); 48.1% (second compound 0.316 µM, first compound 0.001 µM); 28.9% under setting [10]; 25.3% under setting [11]; 26% under setting [12]; 20.4% under setting [13]. In addition, the viability, T/C reads like this: (second compound 1 µM, first compound 0.000316 µM) 62.3%; (second compound 1 µM, first compound 0.001 µM) 43.6%; under setting [14], 32%; under setting [15], 25.1%; under setting [16], 24.6%; under setting [17], 20.5%. Further, the viability, T/C is 57.2% (second compound 3.16 µM, first compound 0.000316 µM); 50.8% (second compound 3.16 µM, first compound 0.001 µM); 29.4% under setting [18]; 25.5% under setting [19]; 25% under setting [20]; 20.9% under setting [21]. Further, the viability, T/C was 49% (second compound 10 µM, first compound 0.000316 µM); 36.1% (second compound 10 µM, first compound 0.001 µM); 24.3% under setting [22]; 22.5% under setting [23]; 22.3% under setting [24]; 16.2% under setting [25].
For `CC1COCCN1c1cc(-c2ccnn2C)c2ccnc(-c3ccn[nH]3)c2n1` (stereo unspecified) + NC1CC1c1ccc(-c2cccc(O)c2)cc1, the IC50 was below 0.00316 µM under setting [1]; below 0.00316 µM under setting [2]; below 0.00316 µM under setting [3]; below 0.00316 µM under setting [4]; below 0.00316 µM under setting [5]. Moreover, the viability, T/C under setting [6] is 38.1%; the viability, T/C under setting [7] is 32%; the viability, T/C under setting [8] is 20.5%; the viability, T/C under setting [9] was 16.4%; the viability, T/C under setting [26] was 15.8%; the viability, T/C under setting [27] is 21.4%. The viability, T/C is 32.1% under setting [10]; 28.7% under setting [11]; 20.7% under setting [12]; 16.6% under setting [13]; 15.8% under setting [28]; 22.5% under setting [29]. Besides, the viability, T/C is, setting by setting: under setting [14], 33.5%; under setting [15], 30.8%; under setting [16], 20.9%; under setting [17], 15.3%; under setting [30], 14.3%; under setting [31], 24%. The viability, T/C runs as follows: under setting [18], 33.4%; under setting [19], 27.9%; under setting [20], 19.7%; under setting [21], 16.9%; under setting [32], 15.2%; under setting [33], 22%. For the same compound, the viability, T/C reads like this: under setting [22], 25.7%; under setting [23], 20.7%; under setting [24], 18.1%; under setting [25], 16.2%; under setting [34], 15%; under setting [35], 20.5%.
Regarding `CCc1c2c(nc3ccc(O)cc13)-c1cc3c(c(=O)n1C2)COC(=O)[C@]3(O)CC`, the viability, T/C runs as follows: (compound 0.000949 µM) 13.4% and 18%; (compound 0.003 µM) 8.18% and 14.8%; (compound 0.00949 µM) 7.45% and 15.4%; (compound 0.03 µM) 9.98% and 5.59%; (compound 0.0949 µM) 5.58% and 0.92%; (compound 0.3 µM) 2.32% and 0.78%. For the same compound, the IC50 (curve of compound) is below 0.000949 µM.
Consider `COc1ccc([C@@H](O)c2cc(-c3ncnc4cc(N5CCOCC5)ccc34)c(F)cc2Cl)nn1`, for which the viability, T/C reads like this: (compound 0.0316 µM) 93.7% and 82%; (compound 0.1 µM) 76.6% and 85.5%; (compound 0.316 µM) 53.9% and 64.1%; (compound 1 µM) 39.6% and 43.1%; (compound 3.16 µM) 27.3% and 22.8%; (compound 10 µM) 23.2% and 13.2%. Further, the IC50 (curve of compound) was 0.449 µM and 0.7 µM.
`NS(=O)(=O)OCC1CC(n2ccc3c(NC4CCc5ccccc54)ncnc32)CC1O` (stereo unspecified): the viability, T/C was 140% and 117% (compound 0.00949 µM); 119% and 91% (compound 0.03 µM); 71.6% and 43.9% (compound 0.0949 µM); 43.7% and 22.5% (compound 0.3 µM); 37.5% and 26.5% (compound 0.949 µM); 34.5% and 26.1% (compound 3 µM). Also, the concentration for half-maximal inhibition (IC50) (curve of compound) is 0.23 µM and 0.0799 µM.
As to `CC1COCCN1c1cc(C2(S(C)(=N)=O)CC2)nc(-c2ccnc3[nH]ccc23)n1` (stereo unspecified) + NC1CC1c1ccc(-c2cccc(O)c2)cc1, the half-inhibitory concentration (IC50) was 0.952 µM under setting [1]; 0.749 µM under setting [2]; 0.537 µM under setting [3]; 0.832 µM under setting [4]; 0.49 µM under setting [5]. For the same compound, the viability, T/C runs as follows: under setting [8], 90.7%; under setting [9], 90.3%; under setting [26], 87%; under setting [27], 47.6%; (second compound 0.1 µM, first compound 3.16 µM) 31.5%; (second compound 0.1 µM, first compound 10 µM) 22.4%. The viability, T/C runs as follows: under setting [12], 71.7%; under setting [13], 74.8%; under setting [28], 74.5%; under setting [29], 42%; (second compound 0.316 µM, first compound 3.16 µM) 23.3%; (second compound 0.316 µM, first compound 10 µM) 20.3%. Besides, the viability, T/C runs as follows: under setting [16], 53.6%; under setting [17], 68.1%; under setting [30], 57.4%; under setting [31], 40.4%; (second compound 1 µM, first compound 3.16 µM) 23.9%; (second compound 1 µM, first compound 10 µM) 20.9%. Further, the viability, T/C is 72.4% under setting [20]; 80.1% under setting [21]; 72.7% under setting [32]; 45.6% under setting [33]; 23% (second compound 3.16 µM, first compound 3.16 µM); 21.1% (second compound 3.16 µM, first compound 10 µM). For the same compound, the viability, T/C was 57.1% under setting [24]; 59.7% under setting [25]; 56.4% under setting [34]; 40.1% under setting [35]; 23.6% (second compound 10 µM, first compound 3.16 µM); 18.7% (second compound 10 µM, first compound 10 µM).

Values taken from PubChem BioAssay AID1918953 (Molecular Pharmacology Branch, DTP, NCI, 2023).
